From PMC5055185, “Dual pharmacological inhibition of glutathione and thioredoxin systems synergizes to kill colorectal carcinoma stem cells” (Cancer Medicine, 2016)
pIC50: −log10 of the molar value. “And” between values parts separate entries of the source, which are not always exact repeats. Identical values can stand only once.

Assays:
Assay type in all cases: cell-based, human
[1] = system: OUMS‐36 embryonic fibroblasts; assay: cell survival (live cell count by trypan blue exclusion, 5 days drug exposure), OUMS-36; conditions: for pIC50: OUMS36, cellular survival, 5 days
Description: (§1) Modified procedures of CTOS culture 16 were described elsewhere 10. […] The culture medium was serum‐free advanced DMEM/F‐12 (GIBCO, Waltham, MA) supplemented with FGF‐2 (10 ng/mL, ReproCell, Yokohama, Japan), penicillin ([…], Wako, Osaka, Japan), streptomycin (0.1 mg/mL,Wako), gentamicin (50 μg/mL, Wako), and fungizone (0.25 μg/mL, GIBCO). DLD‐1 and HCT116 CRC cell lines were purchased from JCRB Cell Bank (Osaka, Japan) and RIKEN BioResource Center (Ibaraki, Japan), respectively. In order to estimate pharmacological side effects against normal tissues, human diploid fibroblasts were purchased (JCRB Cell Bank) as model cells. The origins of the fibroblasts were as follows: OUMS‐36 (embryo), TIG‐3 (fetal lung), TIG‐111 (dermal fibroblasts [DFs] from individual), TIG‐119 (DFs from individual), and TIG‐102 (DFs from individual). Adult DFs were purchased from Kurabo (Osaka, Japan). CRC cell lines and fibroblasts were maintained under supplier‐recommended culture conditions. Since the culture conditions are different between fibroblasts and CTOSs, we need to be cautious about the interpretation of data (i.e., lateral comparison between them). […] Colorectal CTOSs display augmented survival through maintaining epithelial structure with E‐cadherin 16. On the other hand, the establishment of conventional cell lines (adherent culture) are much less efficient because constant cell division and autonomous survival are required for the procedure. When we choose CTOSs instead of cancer cell lines, we lose the equivalent condition (adherent culture) as a trade‐off.
(§2) Each drug's half‐maximal inhibitory concentration (IC50) was calculated based on live cell number ratios (drug treated/untreated × 100%) obtained from serial dilution of drug concentration. The length of drug exposure was 5 days. Each number of live cells was counted automatically by trypan blue exclusion (LUNA automated cell counter, Logos Biosystems, Anyang, South Korea). Cancer spheroids were dispersed with serial treatments (20 min each) of TrypLE™ and Accumax™. Thus, IC50 was determined based on cellular survival, but not on proliferation. We chose the survival index instead of the speed of growth because CTOSs in vitro show very slow proliferation (quiescence), which is one of the hallmarks of CSCs 2. The IC50 values of fibroblasts were accordingly determined based on cellular survival index during quiescence (by contact inhibition). […] To quantify the synergism of two distinct drugs, Combination Index (CI) was calculated 21. A CI value of about 1 (0.90–1.10) was defined as nearly additive and CI values more than (>1.10) and less than (<0.90) were defined as antagonism and synergism, respectively. IC50 and CI were determined using CompuSyn software (ComboSyn, Paramus, NK).

[2] = system: TIG‐111 dermal fibroblasts; assay: cell survival (trypan blue exclusion, 5 days), TIG-111; conditions: for pIC50: TIG111, cellular survival, 5 days; for Ratio of survived cells (Drugs treated/Untreated), Average / Ratio of survived cells (Drugs treated/Untreated), single passage points #: TIG-111
Description: as §1, §2

[3] = system: TIG‐119 dermal fibroblasts; assay: cell survival (trypan blue exclusion, 5 days), TIG-119; conditions: for pIC50: TIG119, cellular survival, 5 days
Description: as §1, §2

[4] = system: DF adult dermal fibroblasts; assay: cell survival (trypan blue exclusion, 5 days), DF; conditions: for pIC50: cellular survival, 5 days
Description: as §1, §2

[5] = system: CTOS76 colorectal cancer tissue‐originated spheroids; assay: cell survival (trypan blue exclusion, 5 days), CTOS76; conditions: for pIC50: CTOS76, cellular survival, 5 days
Excerpt: (§3) All experimental procedures were approved by the animal facility at Dokkyo Medical University (ID: 951) and were described elsewhere 10. The existence of CSCs has been experimentally proven through serial xenotransplantation and tumorigenesis 2, 14. […] These subcutaneous tumors were again subjected to enzymatic dissociation and some of the tumor cells were subcutaneously transplanted into other mice. […] Seven cases (CTOS:40, 42, 68, 71, 76, 86, 88) were used for in vitro experiments.
as §1
(§4) Each drug's half‐maximal inhibitory concentration (IC50) was calculated based on live cell number ratios (drug treated/untreated × 100%) obtained from serial dilution of drug concentration. The length of drug exposure was 5 days. Each number of live cells was counted automatically by trypan blue exclusion (LUNA automated cell counter, Logos Biosystems, Anyang, South Korea). Cancer spheroids were dispersed with serial treatments (20 min each) of TrypLE™ and Accumax™. Thus, IC50 was determined based on cellular survival, but not on proliferation.

[6] = system: CTOS86 colorectal cancer tissue‐originated spheroids; assay: cell survival (trypan blue exclusion, 5 days), CTOS86; conditions: for pIC50: CTOS86, cellular survival, 5 days; for Ratio of survived cells (Drugs treated/Untreated), Average / Ratio of survived cells (Drugs treated/Untreated), single passage points #: CTOS#86
Excerpt: as §3, §1, §4

[7] = system: phosphorylated NRF2 in colorectal CTOSs; assay: NRF2 phosphorylation by western blotting, colorectal CTOSs; conditions: 24 hours, Auranofin 2µM, Piperlongumine 5µM, CB83 12.5 µM
Description: From colorectal CTOS, whole‐cell proteins were dissolved with solubilizer (7 mol/L urea, 2 mol/L thiourea, 2% Triton X‐100, Wako) and the entangled genomic DNA was sheared by sonication for 30 min. Procedures for immunoblotting have been described elsewhere 6, 10. Primary antibodies used in this study are as follows: phosphorylated NRF2 from Abcam (#76026) and Histone H3 from Cell Signaling Technologies (#4499, Danvers, MA). Phosphorylation of NRF2 is well correlated with nuclear accumulation in HCCs 6. Representative data are shown in the figures; all experiments were reproduced at least twice with different passage points.
Colorectal CTOSs were incubated with each inhibitor for 24 hours. Whole cell proteins were extracted and each well was loaded with same amount of proteins (40 µg for NRF2 and 10 µg for H3). Phosphorylation of NRF2 was measured by western blotting. Blotting for histone H3 serves as loading control.

COc1cc(/C=C/C(=O)N2CCC=CC2=O)cc(OC)c1OC [Pipe, Piperlongumine]
pIC50 [1]: 5.03 | Ratio of survived cells (Drugs treated/Untreated), Average ([1]; OUMS-36, Pipe 2.5 microM): 107.667% | Ratio of survived cells (Drugs treated/Untreated), Average ([1]; OUMS-36, Pipe 5 microM): 84.6667% | Ratio of survived cells (Drugs treated/Untreated), Average ([1]; OUMS-36, Pipe 10 microM): 49.1667% | pIC50 [2]: 5.09 | Ratio of survived cells (Drugs treated/Untreated), Average ([2]; Pipe 2.5 microM): 110% | Ratio of survived cells (Drugs treated/Untreated), single passage points # ([2]; Pipe 2.5 microM): 85% and 103% and 123% and 129% | Ratio of survived cells (Drugs treated/Untreated), Average ([2]; Pipe 5 microM): 95% | Ratio of survived cells (Drugs treated/Untreated), single passage points # ([2]; Pipe 5 microM): 69% and 82% and 125% and 104% | Ratio of survived cells (Drugs treated/Untreated), Average ([2]; Pipe 10 microM): 19.75% | pIC50 [3]: 5.13 | Ratio of survived cells (Drugs treated/Untreated), Average ([3]; TIG-119, Pipe 2.5 microM): 95.75% | Ratio of survived cells (Drugs treated/Untreated), single passage points # ([3]; TIG-119, Pipe 2.5 microM): 83% and 121% and 96% | Ratio of survived cells (Drugs treated/Untreated), Average ([3]; TIG-119, Pipe 5 microM): 80.75% | Ratio of survived cells (Drugs treated/Untreated), Average ([3]; TIG-119, Pipe 10 microM): 27% | Ratio of survived cells (Drugs treated/Untreated), Average ([4]; Pipe 2.5 microM): 94.8333% | Ratio of survived cells (Drugs treated/Untreated), Average ([4]; Pipe 5 microM): 80.3333% | Ratio of survived cells (Drugs treated/Untreated), single passage points # ([4]; Pipe 5 microM): 81% and 80% and 83% and 109% and 67% and 62% | Ratio of survived cells (Drugs treated/Untreated), Average ([4]; Pipe 10 microM): 12.5% | pIC50 [4]: 5.20 | pIC50 [5]: 5.15 | Ratio of survived cells (Drugs treated/Untreated), Average ([5]; CTOS#76, Pipe 2.5 microM): 81.75% | Ratio of survived cells (Drugs treated/Untreated), Average ([5]; CTOS#76, Pipe 5 microM): 73% | Ratio of survived cells (Drugs treated/Untreated), Average ([5]; CTOS#76, Pipe 10 microM): 32.3333% | pIC50 [6]: 5.15 | Ratio of survived cells (Drugs treated/Untreated), Average ([6]; Pipe 2.5 microM): 79% | Ratio of survived cells (Drugs treated/Untreated), single passage points # ([6]; Pipe 2.5 microM): 79% | Ratio of survived cells (Drugs treated/Untreated), Average ([6]; Pipe 5 microM): 60% | Ratio of survived cells (Drugs treated/Untreated), single passage points # ([6]; Pipe 5 microM): 69% and 51% | Ratio of survived cells (Drugs treated/Untreated), Average ([6]; Pipe 10 microM): 39.5% | Ratio of survived cells (Drugs treated/Untreated), single passage points # ([6]; Pipe 10 microM): 39% and 40% | NRF2 phosphorylation [7]: efficiently phosphorylated

CC[PH](CC)(CC)[Au][S][C@@H]1O[C@H](COC(C)=O)[C@@H](OC(C)=O)[C@H](OC(C)=O)[C@H]1OC(C)=O [Aura, Auranofin]
pIC50 [1]: 5.75 | Ratio of survived cells (Drugs treated/Untreated), Average ([1]; OUMS-36, Aura 1 microM): 87.8571% | Ratio of survived cells (Drugs treated/Untreated), single passage points # ([1]; OUMS-36, Aura 1 microM): 123% and 124% and 66% and 91% and 65% and 77% and 69% | Ratio of survived cells (Drugs treated/Untreated), Average ([1]; OUMS-36, Aura 2 microM): 39.8571% | Ratio of survived cells (Drugs treated/Untreated), Average ([1]; OUMS-36, Aura 4 microM): 6% | pIC50 [2]: 5.76 | Ratio of survived cells (Drugs treated/Untreated), Average ([2]; Aura 1 microM): 94.25% | Ratio of survived cells (Drugs treated/Untreated), Average ([2]; Aura 2 microM): 41.75% | Ratio of survived cells (Drugs treated/Untreated), Average ([2]; Aura 4 microM): 0% | Ratio of survived cells (Drugs treated/Untreated), single passage points # ([2]; Aura 4 microM): 0% | pIC50 [3]: 5.93 | Ratio of survived cells (Drugs treated/Untreated), Average ([3]; TIG-119, Aura 1 microM): 53.3333% | Ratio of survived cells (Drugs treated/Untreated), Average ([3]; TIG-119, Aura 2 microM): 31.6667% | Ratio of survived cells (Drugs treated/Untreated), Average ([3]; TIG-119, Aura 4 microM): 5% | Ratio of survived cells (Drugs treated/Untreated), Average ([4]; Aura 1 microM): 88.25% | Ratio of survived cells (Drugs treated/Untreated), Average ([4]; Aura 2 microM): 33% | Ratio of survived cells (Drugs treated/Untreated), single passage points # ([4]; Aura 2 microM): 38% and 32% and 36% and 26% | Ratio of survived cells (Drugs treated/Untreated), Average ([4]; Aura 4 microM): 0% | Ratio of survived cells (Drugs treated/Untreated), single passage points # ([4]; Aura 4 microM): 0% | pIC50 [4]: 5.80 | pIC50 [5]: 5.55 | Ratio of survived cells (Drugs treated/Untreated), Average ([5]; CTOS#76, Aura 1 microM): 68.4% | Ratio of survived cells (Drugs treated/Untreated), Average ([5]; CTOS#76, Aura 2 microM): 56.4% | Ratio of survived cells (Drugs treated/Untreated), Average ([5]; CTOS#76, Aura 4 microM): 39.5% | Ratio of survived cells (Drugs treated/Untreated), single passage points # ([5]; CTOS#76, Aura 4 microM): 36% and 56% and 30% | pIC50 [6]: 5.52 | Ratio of survived cells (Drugs treated/Untreated), Average ([6]; Aura 1 microM): 83.5% | Ratio of survived cells (Drugs treated/Untreated), single passage points # ([6]; Aura 1 microM): 75% and 92% | Ratio of survived cells (Drugs treated/Untreated), Average ([6]; Aura 2 microM): 64.5% | Ratio of survived cells (Drugs treated/Untreated), single passage points # ([6]; Aura 2 microM): 67% and 62% | NRF2 phosphorylation [7]: efficiently phosphorylated
